This note sets out measurements from the NIST ThermoML archive (doi:10.1021/acs.jced.5b00192).

The structures appear in SMILES notation. ± gives the expanded uncertainty stated by the source.

The conditions of data set [1]: DTA.
Data set [2] in a line: Molar enthalpy of transition or fusion. Particulars: DSC.

With `O=C1c2cccc(O)c2C(=O)c2c(O)cccc21` [1,8-dihydroxyanthraquinone], in data set [1] (Crystal 1), the Normal melting temperature is 195.38 ± 1.5 °C. For the same molecule, in data set [1] (Crystal 2), the Triple point temperature came out at 435.39 ± 0.86 K. Moreover, the “Molar enthalpy of transition or fusion” value in data set [2] (Crystal 1) came out at 4.79 ± 0.179 kcal/mol; in data set [2] (Crystal 2) it was 1.19 ± 0.0454 kcal/mol.
